In patent US8921424B2, “Histone deacetylase inhibitors, process for preparation and uses thereof” (Zhejiang Hisun Pharmaceutical Co. Ltd., priority 2007, dated 2014):
Read-outs that look alike come from different tables or passages of the source.

Tests used:
HDACs = test: In vitro HDACi assay (BIOMOL fluorescent-based HDAC activity assay); format: biochemical
Procedure: (§1) In Vitro HDACi Assay for Determination of IC50 Values
(§2) The assay has been carried out in white 96 well formats according to the BIOMOL's method. […] The reaction mixture was incubated at room temperature for 2 hours. Flur de lys Developer was added and the reaction was incubated for 10 min. Briefly, deacetylation of the substrate sensitizes to the developer, which then generates a fluorophore. The fluorophore is excited with 360 nm light and the emitted light (460 nm) is detected on a fluorometric plate reader (Molecular Device Ultra Microplate detection system, MD Group Ltd).
(§3) The analytical software, Prism 4.0 (GraphPad Software Inc) has been used to generate IC50 from a series of data.

HDAC6 = HDAC6 (Homo sapiens (Human), UniProt Q9UBN7); test: In vitro HDACi assay, HDAC6; format: biochemical
Sequence of HDAC6 (Q9UBN7 whole entry, species assumed): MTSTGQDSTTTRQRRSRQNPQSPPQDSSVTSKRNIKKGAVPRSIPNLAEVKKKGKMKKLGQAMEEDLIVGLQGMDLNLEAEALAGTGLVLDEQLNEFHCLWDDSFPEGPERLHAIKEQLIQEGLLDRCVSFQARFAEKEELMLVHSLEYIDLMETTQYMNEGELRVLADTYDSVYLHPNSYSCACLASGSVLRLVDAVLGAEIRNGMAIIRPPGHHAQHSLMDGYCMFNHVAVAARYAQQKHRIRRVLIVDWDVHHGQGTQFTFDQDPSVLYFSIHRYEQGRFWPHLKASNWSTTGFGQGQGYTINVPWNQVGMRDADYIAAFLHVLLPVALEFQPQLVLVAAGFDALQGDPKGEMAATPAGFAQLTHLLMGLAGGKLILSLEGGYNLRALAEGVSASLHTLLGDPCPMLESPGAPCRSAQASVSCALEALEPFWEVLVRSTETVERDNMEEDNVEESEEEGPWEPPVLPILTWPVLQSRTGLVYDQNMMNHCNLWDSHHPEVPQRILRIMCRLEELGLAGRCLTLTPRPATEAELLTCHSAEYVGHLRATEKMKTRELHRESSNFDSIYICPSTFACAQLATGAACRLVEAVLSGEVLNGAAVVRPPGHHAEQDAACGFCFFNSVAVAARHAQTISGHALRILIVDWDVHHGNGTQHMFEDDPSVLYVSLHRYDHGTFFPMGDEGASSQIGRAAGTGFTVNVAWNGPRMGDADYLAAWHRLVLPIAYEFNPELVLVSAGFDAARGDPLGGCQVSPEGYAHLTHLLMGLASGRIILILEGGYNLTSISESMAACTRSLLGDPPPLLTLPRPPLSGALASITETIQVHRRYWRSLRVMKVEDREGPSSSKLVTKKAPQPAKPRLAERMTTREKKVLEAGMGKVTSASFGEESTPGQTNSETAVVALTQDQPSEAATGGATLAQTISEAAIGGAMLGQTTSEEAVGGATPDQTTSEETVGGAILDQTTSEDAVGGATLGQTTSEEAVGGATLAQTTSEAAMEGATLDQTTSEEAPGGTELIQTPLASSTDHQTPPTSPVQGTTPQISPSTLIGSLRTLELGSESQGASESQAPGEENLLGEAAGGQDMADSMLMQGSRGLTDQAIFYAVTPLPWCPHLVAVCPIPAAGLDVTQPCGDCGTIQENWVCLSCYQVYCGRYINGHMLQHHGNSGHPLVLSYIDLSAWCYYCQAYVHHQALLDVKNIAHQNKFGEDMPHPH
Procedure: as §1, §2, §3

[1] = Table 3, read-out: IC50 (nM) HDACs
[2] = Table 4, read-out: HDAC enzyme inhibition activity IC50

Compound | IC50 (HDACs; [1]) | IC50 (HDACs; [2]) | IC50 (HDAC6; Table 3, read-out: IC50 (nM) HDAC6) | IC50 (HDAC6)
CCCCCNc1cc(/C=C/C(=O)NO)ccc1SCCN(CC)CC [Example 2, 3-(4-(2-(diethylamino)ethylthio)-3-(pentylamino)phenyl)-N-hydroxy-acrylamide] | 21 nM | 21000 nM | 578 nM | –
CCCCc1nc2cc(/C=C/C(=O)NO)ccc2n1CCN(CC)CC [SB939, reference compound] | 18 nM | 18000 nM | – | 488 nM
